Counter-ions that a name gives are not always drawn.
What was measured:
[1] = system: several laboratory strains and primary isolates; details: cited from earlier work
TZM-bl cells = assay: Cytotoxicity in TZM-bl cells; type: cell-based; details: at the dose given as CC50 bound
MT-2 cells = assay: Cytotoxicity in MT-2 cells; type: cell-based, Human; details: for % toxicity at that dose (number in parenthesis), MT-2 cells: at the dose given as CC50 bound

Which “potency against several laboratory strains and primary isolates” value [1] does the source give for `CC1(C)CC(NC(=O)C(=O)Nc2ccc(Cl)cc2)CC(C)(C)N1` [compound 1] here?
The value was “low micromolar potency”.

For `Cc1nc(C(NC(=O)C(=O)Nc2ccc(F)c(F)c2)C2CCCCN2)sc1CO` (stereo not drawn) [compound 22, N^1-(3,4-difluorophenyl)-N^2-((5-(hydroxymethyl)-4-methylthiazol-2-yl)(piperidin-2-yl)methyl)oxalamide.HCl], which “% toxicity at that dose (number in parenthesis), TZM-bl cells” value (“% toxicity at that dose … TZM-bl cells” for short) (TZM-bl cells) is on record?
Its value is 0%.

What does the source list for `Cc1nc(C(NC(=O)C(=O)Nc2ccc(Cl)cc2)C2CCCCN2)sc1CCO.O=CO` (stereo not drawn) [compound 30, N^1-(4-chlorophenyl)-N^2-((5-(2-hydroxyethyl)-4-methylthiazol-2-yl)(piperidin-2-yl)methyl)oxalamide.HCOOH]?
% toxicity at that dose (number in parenthesis), MT-2 cells (MT-2 cells): 0%; CC50 (MT-2 cells; read-out: MT-2 Cells CC50 (μM ± SD), MT-2 cells, XTT, 4 days): > 62 µM

With `Cc1nc(C(NC(=O)C(=O)Nc2ccc(F)cc2)C2CCCCN2)sc1CO` (stereo not drawn) [compound 25, N^1-(4-fluorophenyl)-N^2-((5-(hydroxymethyl)-4-methylthiazol-2-yl)(piperidin-2-yl)methyl)oxalamide.HCl] as the molecule, how does the “% toxicity at that dose … TZM-bl cells” value (TZM-bl cells) read?
The value was 0%.

With `Cc1nc(C(NC(=O)C(=O)Nc2ccc(F)c(Cl)c2)C2CCCCN2)sc1CO` (stereo not drawn) [compound 24, N^1-(3-chloro-4-fluorophenyl)-N^2-((5-(hydroxymethyl)-4-methylthiazol-2-yl)(piperidin-2-yl)methyl)oxalamide.2HCl] as the molecule, how does the “% toxicity at that dose … TZM-bl cells” value (TZM-bl cells) read?
The value was 0%.

For `Cc1nc(C(NC(=O)C(=O)Nc2ccc(Cl)cc2)C2CCCCN2)sc1CCO` (stereo not drawn) [compound 9, N^1-(4-chlorophenyl)-N^2-((5-(2-hydroxyethyl)-4-methylthiazol-2-yl)(piperidin-2-yl)methyl)oxalamide.HCOOH], which “% toxicity at that dose (number in parenthesis), MT-2 cells” value (MT-2 cells) is on record?
The value was 0%.

With `CC1(C)CC(NC(=O)C(=O)Nc2ccc(Br)cc2)CC(C)(C)N1` [compound 2] as the molecule, how does the “potency against several laboratory strains and primary isolates” value [1] read?
The value was “low micromolar potency”.

For `Cc1ccc(NC(=O)C(=O)NC(c2nc(C)c(CO)s2)C2CCCCN2)cc1F` (stereo not drawn) [compound 28, N^1-(3-fluoro-4-methylphenyl)-N^2-((5-(hydroxymethyl)-4-methylthiazol-2-yl)(piperidin-2-yl)methyl)oxalamide.HCl], which “% toxicity at that dose … TZM-bl cells” value (TZM-bl cells) is on record?
The value was 0%.
